Source: ChEMBL document CHEMBL3046379, “Differential activity against aphid settling of flavones obtained from Clytostoma callistegioides (Bignoniaceae)” (2013)

How the values were obtained:
Assay type in all cases: functional
Myzus persicae [1] = assay: Anti-settling activity against Myzus persicae (green peach aphid) in compound treated bell pepper leaf assessed as preference index at 50 ug/cm'2 measured 24 hr
Rhopalosiphum padi [2] = assay: Anti-settling activity against Rhopalosiphum padi in compound treated barley [Hordeum vulgare L. (Poaceae)] foliage leaf assessed as preference index at 50 ug/cm'2 measured 24 hr
Myzus persicae [3] = assay: Anti-settling activity against Myzus persicae (green peach aphid) in compound treated bell pepper leaf assessed as aphids settled on leaf at 50 ug/cm'2 measured 24 hr (reference value: 52 +/- 7 to 75 +/- 4%)
Rhopalosiphum padi [4] = assay: Anti-settling activity against Rhopalosiphum padi in compound treated barley [Hordeum vulgare L. (Poaceae)] foliage leaf assessed as aphids settled on leaf at 50 ug/cm'2 measured 24 hr (reference value: 55 +/- 4 to 90 +/- 3%)

| SMILES | Ratio (Myzus persicae [1]) | Ratio (Rhopalosiphum padi [2]) | Activity (Myzus persicae [3]) | Activity (Rhopalosiphum padi [4]) |
| --- | --- | --- | --- | --- |
| COc1ccc(-c2cc(=O)c3c(O)cc(O)c(OC)c3o2)cc1 [GALANGUSTIN] | 0.4 | 0.8 | 29% | 10% |
| COc1c(O)cc(O)c2c(=O)cc(-c3ccc(O)cc3)oc12 [4'-HYDROXYWOGONIN] | 0 | 0.1 | 48% | 44% |
| COc1ccc(-c2cc(=O)c3c(O)cc(O)cc3o2)cc1 [ACACETIN] | 0.1 | 0.3 | 44% | 34% |
